Assay results taken from article PMC6315057, “Industrial scale high-throughput screening delivers multiple fast acting macrofilaricides” (Nature Communications, 2019).

Tests used:
[1] = tested on: Wolbachia within Brugia malayi Mf; test: Anti-Wolbachia time-kill analysis (timed wash-out) in B. malayi Mf; type: cell-based
From the text: To compare the dynamics of the in vitro phenotype of our hits with existing anti-Wolbachia therapies, we employed a timed wash-out strategy (Fig. 5) at 10x EC50 to establish the anti-Wolbachia time-kill kinetics of the selected chemotypes (1A–5A), using five replicates per compound. […].
Fig. 5 Anti-Wolbachia time-kill analysis. Representatives from the top five clusters (1A–5A), as well as established anti-Wolbachia antibacterials (doxycycline (white), minocycline (grey), rifampicin (black)) were assessed after exposure for 1 day and 2 days before washing and further incubation until the standard 6-day read out. wsp:gst ratio was normalised to the DMSO vehicle control resulting in a read out of mean percentage reduction from control. Doxycycline day 6 treatment represents the result for exposure to doxycycline at 5 µM for a full 6 days (no wash). The box extends from the 25th to the 75th percentile with the median presented by the central line. The whiskers are set at the minimum and maximum therefore indicating the range from five replicates. The cluster number is indicated by colour: cluster 1 (dark blue), 2 (magenta), 3 (teal), 4 (dark gold), and 5 (light blue)
(§1) The Mf were obtained by peritoneal lavage, using a catheter, of gerbils (Meriones unguiculatus) harbouring a patent infection of B. malayi. Mf were purified using a PD-10 desalting column (Fisher), centrifuged (311 RCF for 5 min at room temperature) before the addition of 8000 Mf/well of a 96-well plate (100 µl per well) in complete media consisting of RPMI supplemented with 10% FBS, 1% penicillin streptomycin and 1% amphotericin B. Compounds were diluted in complete media and 100 µl was added per well, providing a final concentration of 5 µM, with five replicates per compound. Each plate contained doxycycline (5 µM) and DMSO controls. After incubation at 37 °C for 6 days in 5% CO2, visual assessment of Mf motility was performed and scored from 0 to 4 per well (where 0 = no movement and 4 = highly motile). DNA extraction per sample was performed using the QIAmp DNA Mini Kit before quantitative PCR was performed to obtain the ratio of Wolbachia Surface Protein gene copy number (wsp) to Glutathione S-Transferase gene copy number (gst)[36]. The DNA was amplified using the primers as indicated in Supplementary Table 6.
(§2) The wsp:gst ratio data allowed for normalisation of the Wolbachia level to the Mf biomass for each well. The change in wsp:gst for each compound compared to the DMSO control was calculated before normalisation to the onboard doxycycline control to allow for inter-assay comparison.

[2] = tested on: Wolbachia within Brugia malayi Mf; test: B. malayi microfilarial (Mf) in vitro anti-Wolbachia assay (wsp:gst qPCR); type: cell-based; conditions: Brugia malayi, 144 h; B. malayi Mf, 6 days; read-out: Mf EC50
Method: as §1, with “Compounds were diluted in complete media and 100 µl was added per well, providing a final concentration of 5 µM, with five replicates per compound.” left out
as §2

C[C@H]1c2cccc(O)c2C(=O)C2=C(O)[C@]3(O)C(=O)C(C(N)=O)=C(O)[C@@H](N(C)C)[C@@H]3[C@@H](O)[C@@H]21 [doxycycline, reference compound]
Wolbachia reduction after a single day of exposure ([1]; 10x EC50, 1 day exposure, wash, 6-day read out, normalised to vehicle control): 9%
Exposure time to achieve a maximal Wolbachia reduction ([1]; 10x EC50, maximal reduction 70–90% normalised to vehicle control): > 2 days
EC50 [2]: 0.25 µM
